Measurements from ChEMBL document CHEMBL3046822, “Synthesis, antiplatelet aggregation activity, and molecular modeling study of novel substituted-piperazine analogues” (2011).
Calls of active or inactive are those of the source. The rule behind the calls is not given here.

Key:
Platelet [1] = assay: Antiaggregating activity in Homo sapiens (human) platelet rich plasma assessed as inhibition of ADP-induced platelet aggregation at 0.25 uM incubated for 4 min prior to ADP-induction measured for 5.5 min by turbidometric analysis; assay type: functional, cell-free
[2] = Antiaggregating activity in Homo sapiens (human) platelet rich plasma assessed as ristocetin-induced platelet aggregation at 0.5 uM incubated for 4 min prior to ristocetin-induction measured for 5.5 min by turbidometric analysis (reference value: 65 to 99%); assay type: functional
[3] = Antiaggregating activity in Homo sapiens (human) platelet rich plasma assessed as ristocetin-induced platelet aggregation at 0.125 uM incubated for 4 min prior to ristocetin-induction measured for 5.5 min by turbidometric analysis (reference value: 65 to 99%); assay type: functional
Platelet [4] = assay: Antiaggregating activity in Homo sapiens (human) platelet rich plasma assessed as inhibition of collagen-induced platelet aggregation at 0.25 uM incubated for 4 min prior to collagen-induction measured for 5.5 min by turbidometric analysis; assay type: functional
Platelet [5] = assay: Antiaggregating activity in Homo sapiens (human) platelet rich plasma assessed as inhibition of arachidonic acid-induced platelet aggregation at 0.125 uM incubated for 4 min prior to arachidonic acid-induction measured for 5.5 min by turbidometric analysis; assay type: functional, cell-free
Platelet [6] = assay: Antiaggregating activity in Homo sapiens (human) platelet rich plasma assessed as inhibition of arachidonic acid-induced platelet aggregation at 0.25 uM incubated for 4 min prior to arachidonic acid-induction measured for 5.5 min by turbidometric analysis; assay type: functional, cell-free
[7] = Antiaggregating activity in Homo sapiens (human) platelet rich plasma assessed as disaggregation of ristocetin-induced platelet aggregation at 0.25 uM incubated for 4 min prior to ristocetin-induction measured for 5.5 min by turbidometric analysis relative to control; assay type: functional
[8] = Antiaggregating activity in Homo sapiens (human) platelet rich plasma assessed as collagen-induced platelet aggregation at 0.125 uM incubated for 4 min prior to collagen-induction measured for 5.5 min by turbidometric analysis (reference value: 50 to 98%); assay type: functional
Platelet [9] = assay: Antiaggregating activity in Homo sapiens (human) platelet rich plasma assessed as inhibition of collagen-induced platelet aggregation at 1 uM incubated for 4 min prior to collagen-induction measured for 5.5 min by turbidometric analysis; assay type: functional, cell-free
Platelet [10] = assay: Antiaggregating activity in Homo sapiens (human) platelet rich plasma assessed as inhibition of adrenaline-induced platelet aggregation at 0.125 uM incubated for 4 min prior to adrenaline-induction measured for 5.5 min by turbidometric analysis; assay type: functional, cell-free
Platelet [11] = assay: Antiaggregating activity in Homo sapiens (human) platelet rich plasma assessed as inhibition of arachidonic acid-induced platelet aggregation at 1 uM incubated for 4 min prior to arachidonic acid-induction measured for 5.5 min by turbidometric analysis; assay type: functional, cell-free
[12] = Antiaggregating activity in Homo sapiens (human) platelet rich plasma assessed as disaggregation of ADP-induced platelet aggregation at 0.125 uM incubated for 4 min prior to ADP-induction measured for 5.5 min by turbidometric analysis relative to control; assay type: functional
Platelet [13] = assay: Antiaggregating activity in Homo sapiens (human) platelet rich plasma assessed as inhibition of collagen-induced platelet aggregation at 0.5 uM incubated for 4 min prior to collagen-induction measured for 5.5 min by turbidometric analysis; assay type: functional, cell-free
Platelet [14] = assay: Antiaggregating activity in Homo sapiens (human) platelet rich plasma assessed as inhibition of arachidonic acid-induced platelet aggregation at 0.5 uM incubated for 4 min prior to arachidonic acid-induction measured for 5.5 min by turbidometric analysis; assay type: functional
[15] = Antiaggregating activity in Homo sapiens (human) platelet rich plasma assessed as ristocetin-induced platelet aggregation at 1 uM incubated for 4 min prior to ristocetin-induction measured for 5.5 min by turbidometric analysis (reference value: 65 to 99%); assay type: functional
Platelet [16] = assay: Antiaggregating activity in Homo sapiens (human) platelet rich plasma assessed as inhibition of adrenaline-induced platelet aggregation at 0.5 uM incubated for 4 min prior to adrenaline-induction measured for 5.5 min by turbidometric analysis; assay type: functional, cell-free
Platelet [17] = assay: Antiaggregating activity in Homo sapiens (human) platelet rich plasma assessed as inhibition of ADP-induced platelet aggregation at 1 uM incubated for 4 min prior to ADP-induction measured for 5.5 min by turbidometric analysis; assay type: functional, cell-free
Platelet [18] = assay: Antiaggregating activity in Homo sapiens (human) platelet rich plasma assessed as inhibition of ADP-induced platelet aggregation at 0.5 uM incubated for 4 min prior to ADP-induction measured for 5.5 min by turbidometric analysis; assay type: functional, cell-free
Platelet [19] = assay: Antiaggregating activity in Homo sapiens (human) platelet rich plasma assessed as inhibition of adrenaline-induced platelet aggregation at 1 uM incubated for 4 min prior to adrenaline-induction measured for 5.5 min by turbidometric analysis; assay type: functional, cell-free
Platelet [20] = assay: Antiaggregating activity in Homo sapiens (human) platelet rich plasma assessed as inhibition of adrenaline-induced platelet aggregation at 0.25 uM incubated for 4 min prior to adrenaline-induction measured for 5.5 min by turbidometric analysis; assay type: functional, cell-free
Platelet [21] = assay: Antiaggregating activity in Homo sapiens (human) platelet rich plasma assessed as inhibition of ristocetin-induced platelet aggregation at 20 uM incubated for 4 min prior to ristocetin-induction measured for 5.5 min by turbidometric analysis; assay type: functional, cell-free
[22] = Antiaggregating activity in Homo sapiens (human) platelet rich plasma assessed as collagen-induced platelet aggregation at 1 uM incubated for 4 min prior to collagen-induction measured for 5.5 min by turbidometric analysis (reference value: 50 to 98%); assay type: functional
[23] = Antiaggregating activity in Homo sapiens (human) platelet rich plasma assessed as ADP-induced platelet aggregation at 5 uM incubated for 4 min prior to ADP-induction measured for 5.5 min by turbidometric analysis (reference value: 54 to 88%); assay type: functional
[24] = Antiaggregating activity in Homo sapiens (human) platelet rich plasma assessed as arachidonic acid-induced platelet aggregation at 1 uM incubated for 4 min prior to arachidonic acid-induction measured for 5.5 min by turbidometric analysis (reference value: 55 to 100%); assay type: functional
[25] = Antiaggregating activity in Homo sapiens (human) platelet rich plasma assessed as ristocetin-induced platelet aggregation at 10 uM incubated for 4 min prior to ristocetin-induction measured for 5.5 min by turbidometric analysis (reference value: 65 to 99%); assay type: functional
Platelet [26] = assay: Antiaggregating activity in Homo sapiens (human) platelet rich plasma assessed as inhibition of collagen-induced platelet aggregation at 10 uM incubated for 4 min prior to collagen-induction measured for 5.5 min by turbidometric analysis; assay type: functional, cell-free
Platelet [27] = assay: Antiaggregating activity in Homo sapiens (human) platelet rich plasma assessed as inhibition of arachidonic acid-induced platelet aggregation at 20 uM incubated for 4 min prior to arachidonic acid-induction measured for 5.5 min by turbidometric analysis; assay type: functional, cell-free
Platelet [28] = assay: Antiaggregating activity in Homo sapiens (human) platelet rich plasma assessed as ADP-induced platelet aggregation at 20 uM incubated for 4 min prior to ADP-induction measured for 5.5 min by turbidometric analysis (reference value: 54 to 88%); assay type: functional
Platelet [29] = assay: Antiaggregating activity in Homo sapiens (human) platelet rich plasma assessed as inhibition of arachidonic acid-induced platelet aggregation at 10 uM incubated for 4 min prior to arachidonic acid-induction measured for 5.5 min by turbidometric analysis; assay type: functional, cell-free
Platelet [30] = assay: Antiaggregating activity in Homo sapiens (human) platelet rich plasma assessed as inhibition of collagen-induced platelet aggregation at 5 uM incubated for 4 min prior to collagen-induction measured for 5.5 min by turbidometric analysis; assay type: functional, cell-free
Platelet [31] = assay: Antiaggregating activity in Homo sapiens (human) platelet rich plasma assessed as inhibition of adrenaline-induced platelet aggregation at 20 uM incubated for 4 min prior to adrenaline-induction measured for 5.5 min by turbidometric analysis; assay type: functional, cell-free
[32] = Antiaggregating activity in Homo sapiens (human) platelet rich plasma assessed as ADP-induced platelet aggregation at 1 uM incubated for 4 min prior to ADP-induction measured for 5.5 min by turbidometric analysis (reference value: 54 to 88%); assay type: functional
Platelet [33] = assay: Antiaggregating activity in Homo sapiens (human) platelet rich plasma assessed as inhibition of ADP-induced platelet aggregation at 10 uM incubated for 4 min prior to ADP-induction measured for 5.5 min by turbidometric analysis; assay type: functional, cell-free
[34] = Antiaggregating activity in Homo sapiens (human) platelet rich plasma assessed as ristocetin-induced platelet aggregation at 5 uM incubated for 4 min prior to ristocetin-induction measured for 5.5 min by turbidometric analysis (reference value: 65 to 99%); assay type: functional
Platelet [35] = assay: Antiaggregating activity in Homo sapiens (human) platelet rich plasma assessed as inhibition of adrenaline-induced platelet aggregation at 5 uM incubated for 4 min prior to adrenaline-induction measured for 5.5 min by turbidometric analysis; assay type: functional, cell-free
Platelet [36] = assay: Antiaggregating activity in Homo sapiens (human) platelet rich plasma assessed as inhibition of collagen-induced platelet aggregation at 20 uM incubated for 4 min prior to collagen-induction measured for 5.5 min by turbidometric analysis; assay type: functional, cell-free
Platelet [37] = assay: Antiaggregating activity in Homo sapiens (human) platelet rich plasma assessed as inhibition of arachidonic acid-induced platelet aggregation at 5 uM incubated for 4 min prior to arachidonic acid-induction measured for 5.5 min by turbidometric analysis; assay type: functional, cell-free
Platelet [38] = assay: Antiaggregating activity in Homo sapiens (human) platelet rich plasma assessed as inhibition of adrenaline-induced platelet aggregation at 10 uM incubated for 4 min prior to adrenaline-induction measured for 5.5 min by turbidometric analysis; assay type: functional, cell-free

SMILES: Cl.O=C(C1CCCN(Cc2ccc(F)cc2)C1)N1CCN(c2ccccc2Cl)CC1 (stereo not given)
- inhibition (Platelet [1]): Active
- Activity [2]: 67%
- Activity [3]: 100%
- inhibition (Platelet [4]): Active
- inhibition (Platelet [5]): Active
- inhibition (Platelet [6]): Active
- Activity [7]: 68%
- Activity [8]: 72%
- inhibition (Platelet [9]): Active
- inhibition (Platelet [10]): Active
- inhibition (Platelet [11]): Active
- Activity [12]: 80%
- inhibition (Platelet [13]): Active
- inhibition (Platelet [14]): Active
- Activity [15]: 40%
- inhibition (Platelet [16]): Active
- inhibition (Platelet [17]): Active
- inhibition (Platelet [18]): Active
- inhibition (Platelet [19]): Active
- inhibition (Platelet [20]): Active

SMILES: O=C(c1ccc[n+](Cc2ccc(Br)cc2)c1)N1CCN(c2ncccn2)CC1.[Br-]
- inhibition (Platelet [21]): Active
- Activity [22]: 64%
- Activity [23]: 64%
- Activity [24]: 52%
- Activity [25]: 27%
- inhibition (Platelet [26]): Active
- inhibition (Platelet [27]): Active
- inhibition (Platelet [28]): Active
- inhibition (Platelet [29]): Active
- inhibition (Platelet [30]): Active
- inhibition (Platelet [31]): Active
- Activity [15]: 60%
- Activity [32]: 60%
- inhibition (Platelet [33]): Active
- Activity [34]: 43%
- inhibition (Platelet [35]): Active
- inhibition (Platelet [36]): Active
- inhibition (Platelet [37]): Active
- inhibition (Platelet [19]): Active
- inhibition (Platelet [38]): Active
